# Counter-ions that a name gives are not always drawn. Like-named read-outs stand apart in the source and are kept apart here. Marks after values point to notes of the source that are not given here.
# Experiments:
# mixed bacterial pool = type: cell-based; conditions: PVOH-stabilized VAE emulsion Tg 0, <1000 ppm vinyl acetate
# Experimental: The preservative efficacy of several cationic compounds in a poly(vinyl alcohol)-stabilized VAE copolymer emulsion (Tg=0) containing less than 1000 ppm vinyl acetate was assessed according to the following procedure:
# Aeromonas hydrophilia, Alcaligenes faecalis, Corynebacterium ammoniagenes, Enterobacter aerogenes, Escherichia coli, Klebsiella pneumoniae, Pseudomonas aeruginosa, Proteus vulgaris, Providencia rettgeri, Pseudomonas stutzeri, Shewanella putrefaciens, Serratia liquefaciens, Acinetobacter baumannii, Burkholderia cepacia, Chryseobacterium meningosepticum, Sphingobacterium spiritivorum, Ralstonia pickettii, and GABL.
# Mixed Bacterial Pool Inoculum Preparation
# Each bacterial culture was individually grown on nutrient agar slants, except GABL was grown on potato dextrose agar slants, by inoculating the agar surfaces. The nutrient agar slants were incubated for 24-48 hours at 30° C. and the potato dextrose agar slants were incubated for 48-72 hours at 25° C. After this incubation period, the cells were harvested using quarter strength Ringers solution to wash the bacterial colonies off the agar surface. The washings from all of the slants were combined into one sterile, Erlenmeyer flask. The number of slants and the amount of Ringers Solution used to wash off the bacterial colonies is adjusted during the procedure to obtain a final mixed microbial viable count in the range of 10^8-10^10 CFU/mL.
# Bacterial Biochallenge Test Procedure
# The RABIT procedures were followed as described in Example 1, except the mixed bacterial pool inoculum was used to inoculate the test samples instead of the GABL inoculum.
# GABL = GABL biochallenge test of preserved polymer emulsions (streak plate / RABIT), inoculations passed; type: cell-based, Gluconoacetobacter liquefaciens; conditions: for Inoculations Passed: PVOH-stabilized VAE emulsion, <1000 ppm vinyl acetate
# Experimental: GABL Inoculum Preparation
# A recently isolated culture of GABL was grown on potato dextrose agar slants by inoculating the agar surface. The potato dextrose agar slants were incubated for 48-72 hours at 25° C. After this incubation period, GABL cells were harvested using quarter strength Ringers solution to wash the GABL colonies off of the agar surface. The washings from each slant were combined into one sterile, Erlenmeyer flask. The number of slants and the amount of quarter strength Ringers solution used to wash off the GABL colonies was adjusted during the procedure to obtain a final microbial viable count in the range of 10^8-10^10 CFU/mL.
# Rapid Automated Bacterial Impedance Technique (RABIT): supplied by Microbiology International, manufactured by Don Whitley Scientific, Ltd.
# RABIT utilizes the principal of impedance microbiology to detect and assess microbial activity in a given sample. Using the RABIT, microbial metabolism is monitored by measuring the amount of carbon dioxide produced by actively respiring microorganisms. The electrodes in the RABIT test cells are partially covered with alkaline agar containing potassium hydroxide. As inoculated test samples are monitored on the RABIT, carbon dioxide produced from microbial metabolism is absorbed by the alkaline agar resulting in a change in conductivity. Conductivity is monitored with time and the time to reach a pre-specified rate of reduction in conductivity is termed the time to detection (TTD). Therefore, the shorter the TTD, the higher the number of microorganisms present. Failure can be defined as three successive decreases in conductivity equal to or greater than a pre-specified value (−10 microSiemens is recommended by the manufacturer) at any time during the 72 hour RABIT monitoring period. Alternatively, failure can be defined as a pre-specified total change in conductivity.
# Biochallenge Test Procedure
# Samples (50 g each) of each test emulsion containing a test antimicrobial agent were inoculated with 1.0 mL of the GABL inoculum. After mixing well, the samples were then placed in a 30° C. incubator. After 1, 2, and 6 days of incubation each sample was streak plated onto potato dextrose agar to assess the level of surviving GABL microorganisms. The potato dextrose agar plates were incubated at 25° C. for 48-72 hours before assessing the growth. On the seventh day of incubation, each test emulsion sample was inoculated again with a freshly prepared GABL inoculum, mixed well, then placed back into the incubator. The samples were again streak plated onto potato dextrose agar after incubating for 1, 2, and 6 days since the second inoculation. On the fourteenth day after the test was initiated, the test emulsions were inoculated a third time with another freshly prepared GABL inoculum and then placed back into the incubator. The samples were again streak plated onto potato dextrose agar after 1, 2, 6, and 13 days of incubation since the third inoculation to assess surviving microorganisms. Test failure is defined as a microbial viable count >300 CFU/10 μL observed from the potato dextrose agar streak plate assessments.
# Biochallenge Test Procedure Via the RABIT
# A small amount of a microbial nutrient was added to each emulsion test sample (50 g) containing a test antimicrobial agent. The resulting samples were then inoculated with 1.0 mL of the GABL inoculum. After mixing well, an aliquot (5 g) of each test sample was placed into separate RABIT indirect conductivity tubes. The indirect conductivity tubes were then placed into the RABIT incubator modules set at 30° C. and the conductivity changes monitored for up to 72 hours. The remainder of each test sample was stored in a 30° C. incubator during the RABIT monitoring period. At the completion of the RABIT monitoring period, the aliquot samples were placed back into their respective sample containers. Each test sample was then re-inoculated with a freshly prepared GABL inoculum. […]
smiles,measurement,setting,value
"CCCCCCCCCCCCNC(=N)N [DGH, n-dodecylguanidine hydrochloride]",Inoculations Passed,mixed bacterial pool; active biocide dosage 100 ppm,2
same,Inoculations Passed,mixed bacterial pool; active biocide dosage 200 ppm,7
same,# of GABL Inoculations Passed,"GABL; DGH 100 ppm, emulsion VA/E, Tg 0 °C, H2O2/SFS, PVOH (first such line of Table 2)",3
same,# of GABL Inoculations Passed,"GABL; DGH 100 ppm, emulsion VA/E, Tg 0 °C, H2O2/SFS, PVOH (second such line of Table 2)",2
same,# of GABL Inoculations Passed,"GABL; DGH 100 ppm, emulsion VA/E, Tg 0 °C, H2O2/SFS, PVOH/nonionic surfactant",1
same,# of GABL Inoculations Passed,"GABL; DGH 100 ppm, emulsion VA/E, Tg 4 °C, KPS/SFS, Nonionic surfactant/HEC",0
same,# of GABL Inoculations Passed,"GABL; DGH 100 ppm, emulsion VA/E, Tg 14 °C, H2O2/SFS, PVOH",5
same,# of GABL Inoculations Passed,"GABL; DGH 100 ppm, emulsion VA/E, Tg 20 °C, H2O2/SFS, PVOH, stopped after 4th inoculation",≧4^b
same,# of GABL Inoculations Passed,"GABL; DGH 100 ppm, emulsion VA/E, Tg −5 °C, H2O2/SFS, PVOH/nonionic surfactant",1
same,# of GABL Inoculations Passed,"GABL; DGH 100 ppm, emulsion VA/E, Tg −15 °C, H2O2/SFS, PVOH",2
same,# of GABL Inoculations Passed,"GABL; DGH 100 ppm, emulsion VA/E/MA/SVS, Tg 5 °C, KPS/SFS, Nonionic surfactant",0
same,# of GABL Inoculations Passed,"GABL; DGH 150 ppm, emulsion VA/E, Tg 0 °C, H2O2/SFS, PVOH (first such line of Table 2)",4
same,# of GABL Inoculations Passed,"GABL; DGH 150 ppm, emulsion VA/E, Tg 0 °C, H2O2/SFS, PVOH/nonionic surfactant",2
same,# of GABL Inoculations Passed,"GABL; DGH 150 ppm, emulsion VA/E, Tg 4 °C, KPS/SFS, Nonionic surfactant/HEC",0
same,# of GABL Inoculations Passed,"GABL; DGH 150 ppm, emulsion VA/E, Tg 14 °C, H2O2/SFS, PVOH, stopped after 7th inoculation",≧7^a
same,# of GABL Inoculations Passed,"GABL; DGH 150 ppm, emulsion VA/E, Tg 20 °C, H2O2/SFS, PVOH, stopped after 4th inoculation",≧4^b
same,# of GABL Inoculations Passed,"GABL; DGH 150 ppm, emulsion VA/E, Tg −5 °C, H2O2/SFS, PVOH/nonionic surfactant",3
same,# of GABL Inoculations Passed,"GABL; DGH 150 ppm, emulsion VA/E, Tg −15 °C, H2O2/SFS, PVOH",5
same,# of GABL Inoculations Passed,"GABL; DGH 150 ppm, emulsion VA/E/MA/SVS, Tg 5 °C, KPS/SFS, Nonionic surfactant",0
same,# of GABL Inoculations Passed,"GABL; DGH 200 ppm, emulsion VA/E, Tg 0 °C, H2O2/SFS, PVOH (first such line of Table 2), stopped after 7th inoculation",≧7^a
same,# of GABL Inoculations Passed,"GABL; DGH 200 ppm, emulsion VA/E, Tg 0 °C, H2O2/SFS, PVOH (second such line of Table 2)",7
same,# of GABL Inoculations Passed,"GABL; DGH 200 ppm, emulsion VA/E, Tg 0 °C, H2O2/SFS, PVOH/nonionic surfactant",2
same,# of GABL Inoculations Passed,"GABL; DGH 200 ppm, emulsion VA/E, Tg 4 °C, KPS/SFS, Nonionic surfactant/HEC",0
same,# of GABL Inoculations Passed,"GABL; DGH 200 ppm, emulsion VA/E, Tg 8 °C, KPS/SFS, PVOH",2
same,# of GABL Inoculations Passed,"GABL; DGH 200 ppm, emulsion VA/E, Tg 14 °C, H2O2/SFS, PVOH, stopped after 7th inoculation",≧7^a
same,# of GABL Inoculations Passed,"GABL; DGH 200 ppm, emulsion VA/E, Tg 20 °C, H2O2/SFS, PVOH, stopped after 4th inoculation",≧4^b
same,# of GABL Inoculations Passed,"GABL; DGH 200 ppm, emulsion VA/E, Tg −5 °C, H2O2/SFS, PVOH/nonionic surfactant",3
same,# of GABL Inoculations Passed,"GABL; DGH 200 ppm, emulsion VA/E, Tg −15 °C, H2O2/SFS, PVOH, stopped after 7th inoculation",≧7^a
same,# of GABL Inoculations Passed,"GABL; DGH 200 ppm, emulsion VA/E/AA, Tg 0 °C, H2O2/SFS, PVOH/nonionic surfactant",0
same,# of GABL Inoculations Passed,"GABL; DGH 200 ppm, emulsion VA/E/MA/SVS, Tg 5 °C, KPS/SFS, Nonionic surfactant",0
same,# of GABL Inoculations Passed,"GABL; DGH 200 ppm, emulsion VA/E/SVS/NMA, Tg 10 °C, TBHP/sodium erythorbate, Anionic sulfate surfactant",0
same,Inoculations Passed,"GABL; Tg 0 °C, biocide dosage 50 ppm active",1
same,Inoculations Passed,"GABL; Tg 0 °C, biocide dosage 100 ppm active",2
same,Inoculations Passed,"GABL; Tg 0 °C, biocide dosage 200 ppm active",7

# Source: patent US6890969B2, “Polymer emulsion preservation using cationic compounds” (Air Products Polymers, L.P., priority 2000, dated 2005)
